Six molecules from PMC5641094, “A peptide antagonist of Prep1-p160 interaction improves ceramide-induced insulin resistance in skeletal muscle cells” (Oncotarget, 2017) can be followed below.

Ends that are not written are not given here. * marks the point of attachment. Biotin = O=C1N[C@H]2[C@H](CS[C@H]2CCCCC(=O)*)N1

One experiment relates to Prep1 mRNA. Description: Real-time RT-PCR of Prep1 mRNA in L6 cells. It counts as cell-based, rat. As to conditions: preliminary data. Here is the method:
(§1) Figure 2 Effect of ceramides on Prep1 and p160 mRNA expression and of Prep1-p160 coprecipitation L6 cells were treated with C2cer (10μM) for 18h and Prep1 (A) or p160 (B) mRNA levels were analyzed by real-time RT-PCR analysis. Data were normalized by the amount of GAPDH mRNA, used as internal control. Bars represent the mean ± SD of three independent experiments, each performed in triplicate. (C) L6 cells were treated with cycloheximide (CHX) at 40μg/mL concentration for 18h and the lysates were analyzed by Western blot with anti-p160 and beta-actin. The autoradiograph shown is representative of three different experiments and subjected to densitometric analysis. (D) Protein lysates from L6 cells treated with C2cer as indicated, were immunoprecipitated with Prep1 antibody and immunoblotted with p160 or Prep1 antibodies. The autoradiograph shown is representative of three different experiments and subjected to densitometric analysis. Asterisks denote statistically significant differences (*p<0.05; **p<0.01).
Total cellular RNA was isolated from L6 cells by using the RNeasy kit (QIAGEN Sciences, Germany), according to manufacturer instructions. 1μg of cell RNA was reverse-transcribed using Superscript III Reverse Transcriptase (Life Technologies Carlsbad, CA, USA). PCR reactions were analyzed using IQTM SYBR Green Supermix (Bio-Rad, Hercules, CA). […]

Experiment [1] has as its system Prep1 and p160 protein levels in L6 cells. Description: Western blot of Prep1 and p160 protein levels in L6 cells. It counts as cell-based, rat. The note with it: CHX 40μg/ml, 18h. Here is the method: Figure 1 Effect of ceramides dose-response and time-course on Prep1 and p160 protein levels L6 skeletal muscle cells were treated with different concentration of C2cer (10μM and 100μM for 18h) (A) and for different time (10μM for 6h and 18h) (B). Protein lysates were analyzed by Western blot using antibodies for Prep1, p160 and for the beta-actin, as a loading control. Blots were detected by ECL and autoradiography. The autoradiographs are representative of four independent experiments. Asterisks denote statistically significant differences (*p<0.05; **p<0.01).
as §1
Figure 3 Design and in vitro effects of Prep1(54-72) peptide on Prep1/p160 association (A) Binding curves of Prep1(59-72) and Prep1(54-72) peptides to p160_20-160 by ELISA-like assays. Biotinylated peptides at several concentrations were added in triplicate to a 96-well plate coated with p160_20-160 (0.1μM). Experiments were performed at least twice and the average results fitted using GraphPad Prism. […] (B) Competition binding experiments. His6-tagged-p160_20-160 at 0.25μM was incubated with Prep1(59-72) and Prep1(54-72) at concentrations ranging between 0.001÷10μM and added to a 96-well plate coated with Prep1_45-155 (0.10μM). Results are the average of three independent experiments. (C) L6 cells were incubated with increasing concentrations of the fluorescein-conjugated peptide (FITC-Prep1(54-72)) and peptide uptake was detected by FACS analysis of fluorescein-labeled cells. Bars represent the mean ± SD of four independent experiments. (D) L6 muscle cells incubated with Prep1(54-72) were stimulated with C2cer (10μM) for 18h. Protein lysates were immunoprecipitated with Prep1 antibodies and analyzed by Western blot using antibodies for p160 or for Prep1. (E) An aliquot of the lysate was used to measure protein expression of Prep1 and p160 and the beta-actin used as loading control. The blots were detected by ECL and autoradiography. The autoradiograph is representative of three independent experiments. Asterisks denote statistically significant differences (*p<0.05; **p<0.01).
L6 rat skeletal muscle cells (ATCC, Manassas, VA, USA) were cultured in DMEM supplemented with 10% FBS and 1% penicillin/streptomycin solution at 37°C in a humidified 95% air and 5% CO2 atmosphere (all vol./vol.). […]
Total cell lysates were obtained and separated by SDS-PAGE. […] The protein concentrations in the cell lysates were measured using a Bio-Rad DC (detergent compatible) assay. […]
On the technique in general: Immunoblotting shows a protein as a band on a membrane.

The target of a further experiment is T1, p160_20-160 (Homo sapiens, UniProt Q9BQG0).
T1 construct: were added to a plate coated with p160_20-160 (0.1μM); His6; made in house
T1 sequence (Q9BQG0 20-160): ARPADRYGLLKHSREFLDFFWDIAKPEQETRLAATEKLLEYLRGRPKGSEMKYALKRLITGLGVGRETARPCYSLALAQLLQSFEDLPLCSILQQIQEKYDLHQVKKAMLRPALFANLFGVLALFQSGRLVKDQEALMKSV
Nature of the experiment: ELISA-like direct binding of biotinylated Prep1 peptides to coated p160_20-160. As to conditions: N-terminally biotinylated peptide variants; plate coated with p160_20-160 (0.1μM); streptavidin-HRP; one-site binding fit; triplicate, performed at least twice. The source says: To address the significance of the association between Prep1 and p160 mediated by C2cer, we generated a synthetic inhibitor of the Prep1/p160 interaction. […] The synthetic peptide covering such stretch of residues was therefore chosen to generate a potential inhibitor. […] Thus, we designed and chemically synthesized a peptide spanning residues 59-72, hereafter Prep1(59-72), which comprises the predicted α-helix and a short loop at the N-terminus (Supplementary Figure 2A, upper panel). […]
(§2) Figure 3 Design and in vitro effects of Prep1(54-72) peptide on Prep1/p160 association (A) Binding curves of Prep1(59-72) and Prep1(54-72) peptides to p160_20-160 by ELISA-like assays. […] (C) L6 cells were incubated with increasing concentrations of the fluorescein-conjugated peptide (FITC-Prep1(54-72)) and peptide uptake was detected by FACS analysis of fluorescein-labeled cells. […] Protein lysates were immunoprecipitated with Prep1 antibodies and analyzed by Western blot using antibodies for p160 or for Prep1. […] The blots were detected by ECL and autoradiography. […]
ELISA experiments were performed using an integrated platform for High-Throughput Screening (Hamilton Robotics, Bonaduz, CH) comprising a fully equipped Starlet 8 channel liquid handler, a robotic arm, a washer and a multi-wavelength plate reader. […] The binding was detected by anti-His HRP-conjugated antibody. […]
For orientation: An ELISA detects its analyte on a solid surface through an enzyme-linked reagent.

Experiment [2] deals with T2, p160_20-160/Prep1_45-155 binding (Homo sapiens, UniProt Q9BQG0).
T2 construct: pre-incubating the His6-tagged-p160_20-160 at 0.25μM with peptides; made in house
T2 sequence (Q9BQG0 20-160): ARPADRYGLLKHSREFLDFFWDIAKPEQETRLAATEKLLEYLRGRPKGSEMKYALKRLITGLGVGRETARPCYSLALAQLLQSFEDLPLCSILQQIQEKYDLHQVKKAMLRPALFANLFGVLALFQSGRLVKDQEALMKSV
Nature of the experiment: ELISA-like competition of p160_20-160/Prep1_45-155 binding. As to conditions: His6-p160_20-160 0.25μM pre-incubated with peptide 0.001-10μM; plate coated with Prep1_45-155 (0.10μM); anti-His HRP; average of three experiments.
Source text: To address the significance of the association between Prep1 and p160 mediated by C2cer, we generated a synthetic inhibitor of the Prep1/p160 interaction. […] The synthetic peptide covering such stretch of residues was therefore chosen to generate a potential inhibitor. […] Thus, we designed and chemically synthesized a peptide spanning residues 59-72, hereafter Prep1(59-72), which comprises the predicted α-helix and a short loop at the N-terminus (Supplementary Figure 2A, upper panel). We also designed and prepared an additional peptide with a slightly longer N-terminal end, named Prep1(54-72) (Supplementary Figure 2A, lower panel), to increase the probability of obtaining a molecule with helical features. […] In order to test the affinity of Prep1 synthetic peptides to p160 protein, ELISA-like experiments were developed where N-terminally biotinylated peptide variants were added to p160_20-160 – coated 96-well plates. As shown in Figure 3A either variants bound p160_20-160 domain in a dose-dependent and saturable manner. […]
as §2
ELISA experiments were performed using an integrated platform for High-Throughput Screening (Hamilton Robotics, Bonaduz, CH) comprising a fully equipped Starlet 8 channel liquid handler, a robotic arm, a washer and a multi-wavelength plate reader. […] In particular, several concentrations of biotinylated peptides at several concentrations were added to a plate coated with p160_20-160 (0.1μM) and binding was detected with streptavidin-HRP. […] The binding was detected by anti-His HRP-conjugated antibody. […]

For experiment [3], the system named is L6 cells. Description: 2-DG uptake in L6 cells. It counts as cell-based, rat. As to conditions: insulin 100nM, mean of three experiments. The procedure: (§3) Figure 6 Effect of Prep1(54-72) peptide on glycogen content and 2-DG uptake L6 control and Prep1 overexpressing cells were stimulated with Insulin (100nM) and/or C2cer (10μM) and incubated with Prep1(54-72). (A) Glycogen content and (B) 2-DG uptake were measured as described in methods. Bars represent the mean ± SD of three independent experiments. Asterisks denote statistically significant differences (*p<0.05; **p<0.01; ***p<0.001).
(§4) Glycogen was isolated from L6 cells homogenized in 0.1% SDS, saturated with Na2SO4 for 30 minutes at 37°C, followed by ethanol (EtOH) precipitation. Glycogen content was determined as previously described. 2-DG uptake by the L6 cells was measured as previously reported.

Experiment [4] has as its system IRS1 tyrosine phosphorylation. Nature of the experiment: IRS1 tyrosine phosphorylation, immunoprecipitation and Western blot. It counts as cell-based, rat. As to conditions: L6 cells, insulin 100nM. Here is the method:
(§5) Figure 4 Prep1(54-72) peptide restores the insulin signaling inhibited by C2cer and Prep1 L6 cells were stimulated with insulin (100nM) and incubated with Prep1(54-72) in presence of C2cer at 10μM for 18h (A-B) or stable transfection of Prep1 (C-D). Protein lysates were immunoprecipitated with specific IR or IRS1 antibodies and analyzed by Western blot using antibodies for phosphotyrosines (pY) and beta-actin as loading control. Blots were detected by ECL and autoradiography. The autoradiographs are representative of three independent experiments. Asterisks denote statistically significant differences (*p<0.05; **p<0.01).
(§6) Total cell lysates were obtained and separated by SDS-PAGE. Briefly, cells were solubilized with lysis buffer containing 50mM HEPES, 150mM NaCl, 10mM EDTA, 10mM Na4P2O7, 2mM sodium orthovanadate, 50mM NaF, 1mM phenylmethylsulfonyl fluoride, 10μg/ml aprotinin, 10μg/ml leupeptin, pH 7.4, and 1% (v/v) Triton X-100. Lysates were clarified by centrifugation at 12,000g for 20 minutes at 4°C. The protein concentrations in the cell lysates were measured using a Bio-Rad DC (detergent compatible) assay. Immunoprecipitation and Western blot analysis have been performed as previously described.

Experiment [5] concerns L6 cells. Description: Glycogen content in L6 cells. It counts as cell-based, rat. The note with it: insulin 100nM, mean of three experiments. Here is the method:
as §3, §4

Experiment [6] has as its system IR tyrosine phosphorylation. Description: IR tyrosine phosphorylation, immunoprecipitation and Western blot. It counts as cell-based, rat. The note with it: L6 cells, insulin 100nM. The procedure: as §5, §6
The target of another experiment is T3, His6-tagged p160(20-160) (UniProt Q7TPV4 20-160).
T3 construct: also called His6-p160(20-160); p160(20-160) domain
T3 sequence (looked up): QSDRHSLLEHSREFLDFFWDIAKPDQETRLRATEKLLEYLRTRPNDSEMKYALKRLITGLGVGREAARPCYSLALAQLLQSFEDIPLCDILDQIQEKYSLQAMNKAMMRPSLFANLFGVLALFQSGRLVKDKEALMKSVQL
Nature of the experiment: ELISA; ELISA-like direct binding: 96-well plate coated with p160(20-160) (0.1 uM); biotinylated peptides at several concentrations added in triplicate; detection with streptavidin-HRP; one-site binding fit (GraphPad Prism). The note with it: both partners purified.

For `Cc1ccc(NCCCc2ccccc2)c(N)c1` [JSH-23], the “effect on C2cer-induced Prep1 mRNA expression” value in the experiment on Prep1 mRNA is “reverts the effect of C2cer”. For `C[C@@H]1C[C@@H]([C@H](O)CC2CC(=O)NC(=O)C2)C(=O)[C@@H](C)C1` [cycloheximide (CHX), cycloheximide], the “reduction of p160 cellular levels” value in experiment [1] amounted to 50%. One may read the Kd as a measure of binding affinity in units of concentration. A higher Kd goes with weaker binding. On p160_20-160, Ac-RHPLFPLLALLFEK-NH2 [Prep1(59-72)] yielded a Kd of 1250 nM. Further, the “IC50, inhibition of p160_20-160/Prep1_45-155 binding” value in [2] is given as “did not converge to a meaningful value”. With “insulin: insulin used at 100nM to stimulate L6 cells”, the “stimulation of glucose uptake (2-DG)” value with L6 cells [3] is 2.1 fold. In experiment [4], the “stimulation of IRS1 tyrosine phosphorylation” value is 1.1 fold. The “stimulation of glycogen synthesis” value in the experiment with L6 cells [5] was found to be 1.3 fold. Also, the “stimulation of IR tyrosine phosphorylation” value in experiment [6] came to 1.5 fold.

B1: N-terminally biotinylated Prep1(59-72) peptide (peptide)
peptide: Biotin-RHPLFPLLALLFEK
notes: Prep1 (Pbx regulating protein 1), stretch of the HR1 domain, named residues 59-72; source: synthetic peptide (Fmoc solid phase, RP-HPLC purified), biotin labelled
B1 came in with a Kd with His6-tagged p160(20-160) of 1250 ± 80 nM.

B2: N-terminally biotinylated Prep1(54-72) peptide (peptide)
peptide: Biotin-KQAIYRHPLFPLLALLFEK
notes: Prep1 (Pbx regulating protein 1), stretch of the HR1 domain, named residues 54-72; source: synthetic peptide (Fmoc solid phase, RP-HPLC purified), biotin labelled
B2 showed a Kd with His6-tagged p160(20-160) of 180 ± 40 nM.
